This is an account of results in PMC6199744, “Development of Chemical Proteomics for the Folateome and Analysis of the Kinetoplastid Folateome” (ACS Infectious Diseases, 2018).

Assay type in all cases: binding
The target in test [1] is T1, HeLa cell extract proteins (Homo sapiens, UniProt P07355).
T1 construct: endogenous in cells; host or cells: HeLa cell extract

For test [2], the target named is T2, HeLa cell extract proteins (Homo sapiens, UniProt P16278).
T2 construct: endogenous in cells; host or cells: HeLa cell extract
T2 sequence (P16278 29-677): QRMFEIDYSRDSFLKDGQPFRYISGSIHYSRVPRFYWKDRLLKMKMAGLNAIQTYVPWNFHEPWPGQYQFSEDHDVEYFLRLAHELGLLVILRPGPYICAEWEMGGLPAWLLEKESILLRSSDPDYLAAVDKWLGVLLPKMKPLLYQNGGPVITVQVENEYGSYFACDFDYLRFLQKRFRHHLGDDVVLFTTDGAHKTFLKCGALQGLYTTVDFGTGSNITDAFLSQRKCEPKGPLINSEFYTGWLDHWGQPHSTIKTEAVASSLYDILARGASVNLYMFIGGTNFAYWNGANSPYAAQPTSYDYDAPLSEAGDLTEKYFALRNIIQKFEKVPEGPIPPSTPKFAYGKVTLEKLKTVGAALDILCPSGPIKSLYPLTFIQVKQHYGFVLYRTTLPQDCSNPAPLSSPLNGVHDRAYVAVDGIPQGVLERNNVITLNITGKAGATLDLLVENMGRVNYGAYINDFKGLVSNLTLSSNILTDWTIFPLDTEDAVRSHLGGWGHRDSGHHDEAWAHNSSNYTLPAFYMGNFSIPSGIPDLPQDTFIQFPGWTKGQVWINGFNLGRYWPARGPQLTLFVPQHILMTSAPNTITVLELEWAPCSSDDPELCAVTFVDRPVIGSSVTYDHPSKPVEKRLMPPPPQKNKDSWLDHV

Test [3] has as its target T3, HeLa cell extract proteins (Homo sapiens, UniProt P27797).
T3 construct: endogenous in cells; host or cells: HeLa cell extract
T3 sequence (P27797 18-417): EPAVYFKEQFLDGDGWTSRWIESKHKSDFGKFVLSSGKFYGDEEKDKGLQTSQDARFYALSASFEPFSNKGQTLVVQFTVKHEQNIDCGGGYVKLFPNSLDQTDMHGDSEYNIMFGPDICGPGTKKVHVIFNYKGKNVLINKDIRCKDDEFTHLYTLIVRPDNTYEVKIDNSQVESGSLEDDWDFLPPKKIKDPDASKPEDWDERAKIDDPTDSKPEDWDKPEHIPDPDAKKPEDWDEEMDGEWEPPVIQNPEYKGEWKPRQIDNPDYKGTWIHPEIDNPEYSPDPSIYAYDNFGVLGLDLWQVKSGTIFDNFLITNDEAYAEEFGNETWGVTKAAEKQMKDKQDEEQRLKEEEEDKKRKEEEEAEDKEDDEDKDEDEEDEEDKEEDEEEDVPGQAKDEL

Test [4] has as its target T4, HeLa cell extract proteins (Homo sapiens, UniProt P55795).
T4 construct: endogenous in cells; host or cells: HeLa cell extract
T4 sequence (P55795 1-449): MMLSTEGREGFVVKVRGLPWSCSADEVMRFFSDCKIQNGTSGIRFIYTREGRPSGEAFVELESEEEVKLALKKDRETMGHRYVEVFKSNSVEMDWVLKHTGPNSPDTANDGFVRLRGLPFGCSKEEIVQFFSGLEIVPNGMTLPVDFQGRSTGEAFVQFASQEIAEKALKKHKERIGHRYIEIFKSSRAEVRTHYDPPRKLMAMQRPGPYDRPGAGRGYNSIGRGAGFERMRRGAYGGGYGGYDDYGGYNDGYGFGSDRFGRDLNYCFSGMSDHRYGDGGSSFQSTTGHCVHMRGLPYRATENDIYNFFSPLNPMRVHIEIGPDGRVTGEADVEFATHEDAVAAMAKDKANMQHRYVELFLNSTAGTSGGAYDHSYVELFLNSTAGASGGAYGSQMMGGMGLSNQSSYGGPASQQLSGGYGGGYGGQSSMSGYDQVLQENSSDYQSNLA

The target in test [5] is T5, HeLa cell extract proteins (Homo sapiens, UniProt Q01813).
T5 construct: endogenous in cells; host or cells: HeLa cell extract
T5 sequence (Q01813 1-784): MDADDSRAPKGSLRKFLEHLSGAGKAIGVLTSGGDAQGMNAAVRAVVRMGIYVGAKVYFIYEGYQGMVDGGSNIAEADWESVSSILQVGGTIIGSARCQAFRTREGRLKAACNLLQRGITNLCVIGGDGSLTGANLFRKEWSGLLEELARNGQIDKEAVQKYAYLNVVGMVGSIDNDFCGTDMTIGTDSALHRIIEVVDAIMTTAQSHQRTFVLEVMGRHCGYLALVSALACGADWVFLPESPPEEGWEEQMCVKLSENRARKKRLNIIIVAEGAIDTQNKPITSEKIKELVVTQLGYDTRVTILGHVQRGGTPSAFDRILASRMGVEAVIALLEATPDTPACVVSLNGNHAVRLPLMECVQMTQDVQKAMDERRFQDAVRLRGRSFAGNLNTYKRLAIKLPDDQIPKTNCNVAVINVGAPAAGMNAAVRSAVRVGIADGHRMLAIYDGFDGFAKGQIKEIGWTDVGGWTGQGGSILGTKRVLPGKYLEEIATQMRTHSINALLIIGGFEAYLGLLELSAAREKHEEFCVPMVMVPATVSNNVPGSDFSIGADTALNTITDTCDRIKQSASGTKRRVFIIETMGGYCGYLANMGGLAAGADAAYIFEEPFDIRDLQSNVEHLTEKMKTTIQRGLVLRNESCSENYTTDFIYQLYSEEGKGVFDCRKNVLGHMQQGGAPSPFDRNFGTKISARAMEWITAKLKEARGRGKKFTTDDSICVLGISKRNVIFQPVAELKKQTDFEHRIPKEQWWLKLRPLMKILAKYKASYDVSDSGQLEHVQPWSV

For test [6], the target named is T6, HeLa cell extract proteins (Homo sapiens, UniProt Q6YN16).
T6 construct: endogenous in cells; host or cells: HeLa cell extract
T6 sequence (Q6YN16 1-418): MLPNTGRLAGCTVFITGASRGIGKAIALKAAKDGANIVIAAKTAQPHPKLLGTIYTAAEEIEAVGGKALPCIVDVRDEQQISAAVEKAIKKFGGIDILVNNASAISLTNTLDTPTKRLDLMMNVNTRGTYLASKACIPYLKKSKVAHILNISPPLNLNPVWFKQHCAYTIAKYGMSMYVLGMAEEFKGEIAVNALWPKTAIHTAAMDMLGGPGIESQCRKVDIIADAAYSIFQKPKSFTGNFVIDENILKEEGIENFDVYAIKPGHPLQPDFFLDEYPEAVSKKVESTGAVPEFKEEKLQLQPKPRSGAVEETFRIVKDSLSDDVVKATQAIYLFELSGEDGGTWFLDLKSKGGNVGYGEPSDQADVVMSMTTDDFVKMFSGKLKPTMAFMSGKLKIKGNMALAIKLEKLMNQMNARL

In test [7] the target is T7, HeLa cell extract proteins (Homo sapiens, UniProt Q9C0E2).
T7 construct: endogenous in cells; host or cells: HeLa cell extract

Each structure is given as a SMILES string. Where two headings read alike, the source gives them in different places.

T7 sequence (Q9C0E2 whole entry): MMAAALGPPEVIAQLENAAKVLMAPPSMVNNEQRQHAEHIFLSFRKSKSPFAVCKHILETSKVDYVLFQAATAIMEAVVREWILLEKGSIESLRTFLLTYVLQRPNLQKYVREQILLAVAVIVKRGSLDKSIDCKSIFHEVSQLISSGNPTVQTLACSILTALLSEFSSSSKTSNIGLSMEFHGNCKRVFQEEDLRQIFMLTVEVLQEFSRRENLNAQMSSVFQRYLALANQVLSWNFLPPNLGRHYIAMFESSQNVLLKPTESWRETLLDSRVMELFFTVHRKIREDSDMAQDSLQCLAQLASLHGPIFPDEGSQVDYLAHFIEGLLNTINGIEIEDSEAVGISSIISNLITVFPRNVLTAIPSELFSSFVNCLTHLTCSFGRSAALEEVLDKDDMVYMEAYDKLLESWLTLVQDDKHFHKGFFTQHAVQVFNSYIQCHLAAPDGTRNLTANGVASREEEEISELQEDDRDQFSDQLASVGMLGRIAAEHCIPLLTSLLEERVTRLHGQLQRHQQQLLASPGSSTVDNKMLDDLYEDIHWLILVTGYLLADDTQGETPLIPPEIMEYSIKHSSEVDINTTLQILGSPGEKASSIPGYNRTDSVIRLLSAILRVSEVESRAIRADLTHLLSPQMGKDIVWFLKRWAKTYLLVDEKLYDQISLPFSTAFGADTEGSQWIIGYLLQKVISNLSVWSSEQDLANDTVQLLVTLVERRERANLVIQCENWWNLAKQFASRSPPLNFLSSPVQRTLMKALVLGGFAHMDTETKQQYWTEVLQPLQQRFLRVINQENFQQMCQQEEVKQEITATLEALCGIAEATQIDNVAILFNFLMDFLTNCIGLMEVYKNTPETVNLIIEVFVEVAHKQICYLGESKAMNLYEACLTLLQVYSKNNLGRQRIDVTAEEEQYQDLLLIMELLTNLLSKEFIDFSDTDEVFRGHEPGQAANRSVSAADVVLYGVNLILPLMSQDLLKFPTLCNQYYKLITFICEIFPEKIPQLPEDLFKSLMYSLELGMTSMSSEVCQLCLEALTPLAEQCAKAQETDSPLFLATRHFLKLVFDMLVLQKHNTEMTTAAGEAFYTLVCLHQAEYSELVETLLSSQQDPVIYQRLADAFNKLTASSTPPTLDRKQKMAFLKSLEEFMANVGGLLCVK
T1 sequence (P07355 whole entry): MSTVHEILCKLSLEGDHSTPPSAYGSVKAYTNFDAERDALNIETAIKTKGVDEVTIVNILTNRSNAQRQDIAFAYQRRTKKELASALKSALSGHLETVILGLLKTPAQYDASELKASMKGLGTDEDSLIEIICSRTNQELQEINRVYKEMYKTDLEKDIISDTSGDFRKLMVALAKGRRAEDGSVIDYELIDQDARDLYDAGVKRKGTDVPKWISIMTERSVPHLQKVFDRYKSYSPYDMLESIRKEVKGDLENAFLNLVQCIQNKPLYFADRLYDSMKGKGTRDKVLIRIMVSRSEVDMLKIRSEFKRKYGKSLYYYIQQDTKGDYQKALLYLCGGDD

`Nc1nc2cccc(-c3ccccc3)c2n1Cc1ccc(Cl)c(Cl)c1` [compound 3]: the “fold changes relative to vehicle control” value in test [1] (protein ANXA2, HeLa) came to 0.9; in test [2] (captured protein GLB1, HeLa) it was 0.99; in test [3] (HeLa, protein CALR (CA[…].)) it was 0.77 fold; in test [4] (protein HNRNPH2, HeLa), 1.05; in test [5] (captured protein PFKP, HeLa), 1.02; in test [6] (protein HSDL2, HeLa), 0.96. In addition, the “fold changes relative to vehicle control” value in test [7] (HeLa, protein XPO4) came to 1.07.

For `NCCOCCOCC(=O)Nc1nc2ncc(CNc3ccc(C(=O)NC(CCC(=O)O)C(=O)O)cc3)nc2c(=O)[nH]1` (stereo not shown) [compound 6], the “fold changes relative to vehicle control” value in test [1] (HeLa, protein ANXA2) came out at 1.32; in test [2] (HeLa, captured protein GLB1), 0.99; in test [3] (HeLa, protein CALR), 1.33; in test [4] (HeLa, captured protein HNRNPH2) it was 0.83; in test [5] (HeLa, protein PFKP), 0.95; in test [6] (HeLa, protein HSDL2), 1.04. Further, the “fold changes relative to vehicle control” value in test [7] (HeLa, protein XPO4) stood at 0.94.

For the compound `Nc1nc2[nH]cc(CCc3ccc(C(=O)N[C@@H](CCC(=O)O)C(=O)O)cc3)c2c(=O)[nH]1` [PTX, pemetrexed], the “fold changes relative to vehicle control” value in test [1] came out at 1.1; in test [2] it was 0.99; in test [3], 1.22; in test [4] it was 0.82; in test [5], 0.9; in test [6], 0.96. Also, the “fold changes relative to vehicle control” value in test [7] stood at 0.82.

Consider `Nc1nc2c(c(=O)[nH]1)N(C=O)C(CNc1ccc(C(=O)N[C@@H](CCC(=O)O)C(=O)O)cc1)CN2` (stereo partly shown) [LEU, leucovorin], for which the “fold changes relative to vehicle control” value was 1 in test [1] (HeLa, protein ANXA2); 1.01 in test [2] (HeLa, captured protein GLB1); 1.15 in test [3] (HeLa, protein CALR); 0.9 in test [4] (HeLa, captured protein HNRNPH2); 0.88 in test [5] (HeLa, protein PFKP); 0.96 in test [6] (HeLa, protein HSDL2). Moreover, the “fold changes relative to vehicle control” value in test [7] (HeLa, protein XPO4) worked out at 0.92.

In the case of `CCCCCCOc1ccc(Cc2cnc(N)nc2N)cc1` [compound 1], the “fold changes relative to vehicle control” value stood at 1.18 in test [1] (protein ANXA2, HeLa); 0.96 in test [2] (captured protein GLB1, HeLa); 1.46 fold in test [3] (HeLa, protein CALR (CA[…].)); 0.93 in test [4] (protein HNRNPH2, HeLa); 1.05 in test [5] (captured protein PFKP, HeLa); 1.11 in test [6] (protein HSDL2, HeLa). For the same compound, the “fold changes relative to vehicle control” value in test [7] (HeLa, protein XPO4) was found to be 0.91.

Regarding `NCCCNc1ccc(C(=O)NC(CCC(=O)O)C(=O)O)cc1` (stereo not shown) [compound 7], the “fold changes relative to vehicle control” value in test [1] (HeLa, protein ANXA2) is on record as 0.97; in test [2] (HeLa, captured protein GLB1), 1.07; in test [3] (HeLa, protein CALR), 0.93; in test [4] (HeLa, captured protein HNRNPH2), 0.91; in test [5] (HeLa, protein PFKP), 0.93; in test [6] (HeLa, protein HSDL2), 1.02. Further, the “fold changes relative to vehicle control” value in test [7] (HeLa, protein XPO4) is listed as 1.

In the case of `CCCCCCOc1cccc(Cc2cnc(N)nc2N)c1` [compound 2], the “fold changes relative to vehicle control” value in test [1] (protein ANXA2, HeLa) is 1.87; in test [2] (captured protein GLB1, HeLa), 0.9; in test [3] (HeLa, protein CALR (CALRETICULIN PRECURSOR.)), 3.14 fold; in test [4] (protein HNRNPH2, HeLa) it was 0.96; in test [5] (captured protein PFKP, HeLa), 1.01; in test [6] (protein HSDL2, HeLa), 1.23. Also, the “fold changes relative to vehicle control” value in test [7] (HeLa, protein XPO4) is given as 1.08.
